One assay relates to Ishikawa cells. The experiment in a line: Ishikawa Cell Alkaline Phosphatase Assay. Format: cell-based, human. The settings on record: for % Activation: percent of response related to 1 nM 17β-estradiol, 48 h. The method, then: Cells were treated for 48 h prior to assay. […] Sample population for at each dose was n=8. […] Plates are placed at -80°C for a minimum of 15 minutes. Plates are thawed at 37°C followed by the addition of 150μL of 0.1 M Tris-HCl, pH 9.8, containing 4 mM para-nitrophenylphosphate (pNPP) to each well (final concentration. 3 mM pNPP). Absorbance and slope calculations were made using the […] Application program (Bio-Tek Instruments, Inc., Winooski, VT). […] Various compounds were assayed for estrogenic activity by the alkaline phosphatase method and corresponding ED50 values (95% C.I.) were calculated. The four listed in the following were used as as reference standards: A description of these methods is described by Holinka, […]., Kuramoto, H. and Gurpide, E. (1986) Effects of steroid hormones and antisteroids on alkaline phosphatase activity in human endometrial cancer cells (Ishikawa Line). Cancer Research, 46:2771-2774, and by […]. and […] simple and sensitive microtiter plate estrogen bioassay based on stimulation alkaline phosphatase in Ishikawa cells; […] Endocrinology, 6:2757-2762.

In a further assay the test system is Ovariectomized Rat. The experiment in a line: 6-Week Ovariectomized Rat Model. Format: in vivo. The settings on record: ovx rats, daily x7 days/week, mean; for BMD L4 / BMD Proximal Tibia: following 5 weeks of treatment; for Body Weight / Cholesterol / Uterine Weight: following 6 weeks of treatment. From the text:
Female Sprague Dawley CD rats, ovx or sham ovx, were obtained 1 day after surgery from Taconic Farm (weight range 240 - 275 g). They were housed 3 or 4 rats/cage in a room on a 14/10 (light/dark) schedule and provided with food (Purina 500 rat chow) and water ad libitum. Treatment for all studies began 1 day after the animals arrival and dosed 5 or 7 days per week as indicated for 6 weeks. A group of age matched sham operated rats not receiving any treatment served as an intact, estrogen replete control group for each study. All treatments were prepared in 1% tween 80 in normal saline at defined concentrations so that the treatment volume was 0.1mL/100g body weight. 17-beta estradiol was dissolved in corn oil (20 uG/mL) and delivered subcutaneously, 0.1 mL/rat. All dosages were adjusted at three week intervals according to group mean body weight measurements.
Five weeks after the initiation of treatment and one week prior to the termination of the study, each rat was evaluated for bone mineral density (BMD). The BMD's of the proximal tibiae (PT) and fourth lumbar vertabrae (L4) were measured in anesthetized rats using a dual energy X-ray absorptiometer (Eclipse XR-26, Norland Corp. Ft. Atkins, WI). The dual energy X-ray absorptiometer (DXA) measurements for each rat were performed as follows: Fifteen minutes prior to DXA measurements, the rat was anesthetized with an intraperitoneal injection of 100 mg/kg ketamine (Bristol Laboratories, Syracuse, NY) and 0.75 mg/kg acepromazine (Aveco, Ft.Dodge, IA). The rat was placed on an acrylic table under the DXA scanner perpendicular to its path; the limbs were extended and secured with paper tape to the surface of the table. A preliminary scan was performed at a scan speed of 50 mm/second with a scan resolution of 1.5 mm X 1.5 mm to determine the region of interest in PT and L4. Small subject software was employed at a scan speed of 10mm/second with resolution of 0.5 mm X 0.5 mm for final BMD measurements. The software allows the operator to define a 1.5 cm wide area to cover the total length of L4. The BMDs for respective sites were computed by the software as a function of the attenuation of the dual beam (46.8 KeV and 80 KeV) X-ray generated by the source underneath the subject and the detector travelling along the defined area above the subject. The data for BMD values (expressed in g/cm2) and individual scans were stored for statistical analysis. One week after BMD evaluation the rats were sacrificed by carbon dioxide suffocation and blood collected for cholesterol determination. The uteri were removed and the weights taken. Total cholesterol is determined using a Boehringer-Mannheim Hitachi 911 clinical analyzer using the Cholesterol/HP kit. Statitstics were compared using one-way analysis of variance with Dunnet's test.

Where [1] appears, read: with 1 nM 17β-estradiol (antiestrogen test).

Marks after values point to notes of the source that are not given here.

Regarding `O=C(c1ccc(OCCN2CCCCC2)cc1)c1c(-c2ccc(O)cc2)sc2cc(O)ccc12` [raloxifene], in the assay with Ishikawa cells (compound alone), the “% Activation” value is on record as 5% activity (5% with 1 nM 17β-estradiol). In addition, in the assay with Ishikawa cells (setting [1]), the “% Activation” value is listed as 5% activity (5% with 1 nM 17β-estradiol). Moreover, in the assay on Ovariectomized Rat (3mg/kg, p.o.), the “BMD L4” value came out at 0.170 mg/cm^2, the “BMD Proximal Tibia” value is reported as 0.207** mg/cm^2, the “Body Weight” value is recorded as 25.3** g and the Cholesterol is listed as 55.0** mg/dl. In addition, the “Uterine Weight” value in the assay on Ovariectomized Rat (3mg/kg, p.o.) was 191.6** mg.
As for `Cc1c(-c2ccc(O)cc2)n(Cc2ccc(OCCN3CCCCCC3)cc2)c2ccc(O)cc12` [Example No. 98, 1-[4-(2-Azepan-1-yl-ethoxy)-benzyl]-2-(4-hydroxy-phenyl)-3-methyl-1H-indol-5-ol], the “% Activation” value in the assay with Ishikawa cells (compound alone) is listed as 1% activity (1% with 1 nM 17β-estradiol). Also, in the assay on Ishikawa cells (setting [1]), the “% Activation” value was 1% activity (1% with 1 nM 17β-estradiol). In addition, in the assay with Ovariectomized Rat (0.3mg/kg, p.o.), the “BMD L4” value came out at 0.173 mg/cm^2, the “BMD Proximal Tibia” value is 0.210** mg/cm^2, the “Body Weight” value came out at 46.8 g and the Cholesterol is 59.0** mg/dl. For the same compound, the “Uterine Weight” value with Ovariectomized Rat (0.3mg/kg, p.o.) is 149.3 mg.
As to `C[C@]12CC[C@@H]3c4ccc(O)cc4CC[C@H]3[C@@H]1CC[C@@H]2O` [17β-estradiol], the EC50 in the assay with Ishikawa cells (Homo sapiens, Ishikawa, estrogenic activity by the alkaline phosphatase method, reference standards, read-out: ED50 values (95% C.I.)) stood at […]. The “% Activation” value with Ishikawa cells (compound alone) turned out to be […]. Also, the “Body Weight” value in the assay with Ovariectomized Rat (2µg/rat, s.c.) is on record as 33.1** g.

The values above are taken from patent EP1076558B1, “2-PHENYL-1-[-(2-AMINOETHOXY)-BENZYL -INDOLE IN COMBINATION WITH ESTROGENS” (Wyeth, priority 1998, dated 1999).
